Data taken from patent US20240335548A1, “MACROMOLECULES” (Starpharma Pty Ltd, priority 2011, published 2024).
pIC50: −log10 of the molar value.

Assays:
[1] = tested on: HT29 (Colon); assay: Cell growth inhibition SRB assay; format: cell-based
Procedure: (§1) All solutions were prepared in saline (except docetaxel which was made in ethanol). All solutions were stored at −20° C. All values were based on the equivalent drug loading.

[2] = tested on: H460 (Lung); assay: Cell growth inhibition SRB assay; format: cell-based
Procedure: as §1

[3] = tested on: MCAS (Ovarian); assay: Cell growth inhibition SRB assay; format: cell-based
Procedure: as §1

[4] = tested on: ES2 (Ovarian); assay: Cell growth inhibition SRB assay; format: cell-based
Procedure: as §1

[5] = tested on: DU145 (Prostate); assay: Cell growth inhibition SRB assay; format: cell-based
Procedure: as §1

[6] = tested on: MDA-MB-231 (Breast); assay: Cell growth inhibition SRB assay; format: cell-based
Procedure: as §1

[7] = tested on: PC-3 (Prostate); assay: Cell growth inhibition SRB assay; format: cell-based
Procedure: as §1

[8] = tested on: A2058 (Melanoma); assay: Cell growth inhibition SRB assay; format: cell-based
Procedure: as §1

[9] = tested on: HCT116 (Colon); assay: Cell growth inhibition SRB assay; format: cell-based
Procedure: as §1

[10] = tested on: A549 (Lung); assay: Cell growth inhibition SRB assay; format: cell-based
Procedure: as §1

[11] = Plasma stability study: docetaxel release in mouse plasma; format: in vitro ADME; details: 37° C.
Procedure: Protocol: To 0.5 mL of mouse plasma was added 0.1 mL of dendrimer solution (2 mg/mL, drug equivalent in saline). The mixtures were vortexed (30 s) then incubated at 37° C. At various timepoints (0.5, 2.5, 4.5, 22 hours) 0.1 mL aliquots were removed and added to 0.2 mL ACN. The resulting mixtures were vortexed (30 s), centrifuged (10 min, 4° C.) filtered and analysed by HPLC (C8, 3.9×150 mm, 5 μm, wavelength=243 nm, 10 μL injections, gradient: 40-80% ACN/H2O (1-7 min), 80% ACN (7-9 min), 80-40% ACN (9-11 min), 40% ACN (11-15 min), 10 mM ammonium formate, pH 7.40) which when compared against a standard (2 mg//mL) provided the concentration of free docetaxel in the sample.

[12] = day 16, one day after final dose
Procedure: The 20 mice were randomised into 5 groups of four mice (mean tumour volume ˜90 mm^3). Animals were eye bled in the morning for baseline blood cell counts and then drug dosing commenced later that day (day 1). […] A second eye bleed was performed on day 11 (Table 7 A-C). Mice were killed one day following the final drug dose (day 16).

[13] = tested on: MDA-MB-231 tumours; assay: Xenograft MDA-MB-231 efficacy study; format: in vivo, female Balb/c nude mice
[14] = Water solubility study on drug loaded dendrimers; format: physicochemical; details: for Water solubility of dendrimer: deionised water, until full dissolution; for Equivalent drug solubility on dendrimer: water solubility x % drug loading/100
Procedure: Protocol: To 30 mg of dendrimer (freeze-dried from water) was added 100 μL of deionised water. After mixing for 10 minutes, additional aliquots of water (10-30 μL per addition) were added with vortexing and incubation for 10 mins until full dissolution was obtained. This amount is represented in Table 1 as the water solubility of the dendrimer. The equivalent drug solubility is determined by multiplying the % drug loading/100 and is represented in Table 1 (column 3) as Equivalent drug solubility on dendrimer. Finally, the fold increase is obtained by dividing the Equivalent drug solubility on dendrimer by the solubility of the drug and is represented in Table 1 (column 4).

[15] = Pharmacokinetic analysis, plasma half-life after IV administration; details: tritium labelled, IV administration into rats
Procedure: The plasma half-lives of tritium labelled docetaxel and the construct from Experiment 8 (c) (prepared using tritium labelled docetaxel) after IV administration into rats were determined (Kaminskas, L. M., Boyd, B. J., Karellas, P., Krippner, G. Y., Lessene, R., Kelly, B and Porter, C. J. H. “The Impact of Molecular Weight and PEG Chain Length on the Systemic Pharmacokinetics of PEGylated Poly-L-Lysine Dendrimers” Molecular Pharm. 2008, 5, 449-463).

[16] = tested on: H460; assay: IC50 using the MTT assay; format: cell-based; details: 72 hours
Procedure: (§2) The IC50 using the MTT assay [Wilson, Anne P. (2000). “Chapter 7: Cytotoxicity and viability”. In Masters, John R. W. Animal Cell Culture: A Practical Approach. Vol. 1 (3rd ed.). Oxford: Oxford University Press] was determined against various cancer cell lines after 72 hours.

[17] = tested on: A549; assay: IC50 using the MTT assay; format: cell-based; details: 72 hours
Procedure: as §2

[18] = tested on: DU-145; assay: IC50 using the MTT assay; format: cell-based; details: 72 hours
Procedure: as §2

[19] = tested on: HT-29; assay: IC50 using the MTT assay; format: cell-based; details: 72 hours
Procedure: as §2

[20] = tested on: MCF-7; assay: IC50 using the MTT assay; format: cell-based; details: 72 hours
Procedure: as §2

[21] = tested on: PC-3; assay: IC50 using the MTT assay; format: cell-based; details: 72 hours
Procedure: as §2

[22] = tested on: HCT-116; assay: IC50 using the MTT assay; format: cell-based; details: 72 hours
Procedure: as §2

[23] = tested on: A2780; assay: IC50 using the MTT assay; format: cell-based; details: 72 hours
Procedure: as §2

[24] = Particle sizing using Dynamic Light Scattering; format: physicochemical
[25] = tested on: MDA-MB-231 tumour xenografts; assay: MDA-MB-231 mouse xenograft breast cancer model, SPL8996, SPL9005 and SPL9006 study; details: 28 mg/kg
Procedure: References to amounts dosed in mg/kg for the dendrimeric compounds are to the amounts of cabazitaxel that may theoretically be released by the dendrimers.
Each of the dendrimers was pre-weighed in glass vials and stored at 20° C. until use, and dissolved in saline immediately prior to dosing. Cabazitaxel was purchased from a commercial supplier.
Female Balb/c nude mice (age 7 weeks) were inoculated subcutaneously on the flank with 3.5×10^6 MDA-MB-231 cells in PBS:Matrigel (1:1). Mice were weighed and tumours measured twice weekly using electronic callipers. Tumour volume (mm^3) was calculated as length (mm)/2×width (mm)^2.
Mice received a small dish containing a food supplement (mixed with food dust) daily. The experiment was ended on day 150 or earlier if an ethical endpoint was met.

[26] = Day 1, i.v. day 1, 8, 15, docetaxel 15 mg/kg, Exp 3 (b) 20 mg/kg, Exp 8 (c) […] mg/kg

Substance | GI50 [2] | GI50 [4] | GI50 [7] | Docetaxel release in plasma ([11]; 0.5 hours) | Docetaxel release in plasma ([11]; 2.5 hours) | Docetaxel release in plasma ([11]; 22 hours) | Mean Tumour Weights (g) (sd) [12] | Mean tumour Volumne mm^3 (sd) [13, 26] | Mean tumour Volumne mm^3 (sd) ([13]; Day 9, same doses) | Mean tumour Volumne mm^3 (sd) ([13]; Day 19, same doses) | Mean tumour Volumne mm^3 (sd) ([13]; Day 29, same doses) | Mean tumour Volumne mm^3 (sd) ([13]; Day 40, same doses) | Mean tumour Volumne mm^3 (sd) ([13]; Day 61, same doses) | Mean tumour Volumne mm^3 (sd) ([13]; Day 81, same doses) | Mean tumour Volumne mm^3 (sd) ([13]; Day 100, same doses) | Mean tumour Volumne mm^3 (sd) ([13]; Day 120, same doses) | Water solubility of dendrimer [14] | Equivalent drug solubility on dendrimer [14] | other results
BHALys[Lys]32[α-DGA-DTX]32[ε-PEG1100]32 [Example 3 (b)] | 8 nM | 4 nM | 4.5 nM | 8.5 percentage of total docetaxel | 32.5 percentage of total docetaxel | 73 percentage of total docetaxel | 0.020 g | 111.74 (6.65), mm^3 | 84.02 (6.33), mm^3 | 28.26 (1.91), mm^3 | 10.46 (0.5), mm^3 | 5.92 (1.31), mm^3 | 4 (0), mm^3 | 0.5 (0), mm^3 | 0.5 (0), mm^3 | 0.37 (0.12), mm^3 | 89 mg/mL | 23 mg/mL | GI50 [1]: 2 nM; GI50 [3]: 7 nM; GI50 [5]: 4 nM; GI50 [6]: 0.5 nM; GI50 [8]: 2 nM; GI50 [9]: 1 nM; GI50 [10]: 3.5 nM
BHALys[Lys]32[α-TDA-DTX]32[ε-PEG1100]32 [Example 8 (c)] | 7 nM | 12 nM | 9.5 nM | 4.5 percentage of total docetaxel | 13.5 percentage of total docetaxel | 43 percentage of total docetaxel | 0.033 g | 111.73 (6.41), mm^3 | 108.86 (9.31), mm^3 | 30.59 (1.64), mm^3 | 11.58 (1.2), mm^3 | 5.75 (0.92), mm^3 | 4 (0), mm^3 | 0.5 (0), mm^3 | 1.67 (0.74), mm^3 | 16.2 (10.24), mm^3 | 131 mg/mL | 41 mg/mL | plasma half-life [15]: approximately 30 hour
BHALys[Lys]32[α-TDA-DTX]32[ε-PolyPEG2000]32 [Example 19] | – | – | – | – | – | – | – | – | – | – | – | – | – | – | – | – | 477 mg/mL | 109 mg/mL | pIC50 [16]: 7.63; pIC50 [17]: 8.11; pIC50 [18]: 7.81; pIC50 [19]: 8.23; pIC50 [20]: 8.20; pIC50 [21]: 8.13; pIC50 [22]: 8.19; pIC50 [23]: 8.20; particle size, range of concentration dependent averages [24]: 10.9-15.5 nm; Fold increase in drug solubility ([14]; equivalent drug solubility divided by solubility of the drug): 21900
N3-PEG24-CO(NPN)[Lys]32[α-TDA-Cabazitaxel]32†[ε-PEG˜1100]32‡ [SPL8996] | – | – | – | – | – | – | – | – | – | – | – | – | – | – | – | – | – | – | tumour regrowth at the conclusion of the study on day 150 [25]: one tumour in the SPL-8996 group which began to regrow by day 77
